Laboratory results taken from patent publication US12186320B2, “Therapeutic agent containing pyrazolo[3,4-d]pyrimidine compound as active ingredient” (TAIHO PHARMACEUTICAL CO., LTD., priority 2018, dated 2025).
Where two headings read alike, the source gives them in different places.

Tests used:
[1] = tested on: Champions Tumor Graft models CTG-1171; details: cited from earlier work
[2] = Body weight change / toxicity judgement in CTG-1171 PDX model (Test Example 2); format: in vivo; details: 60 mg/kg/day p.o. Days 0-27
Procedure: (§1) Compound 1 was prepared to have a predetermined concentration with a 0.1N HCl solution, and the resultant was orally administered once a day on Days 0-27 consecutively. Tumor diameters were measured twice a week with a digital caliper. The rate of change in the weight of the mouse was calculated in the same manner as Test example 1 above. Mice observed with weight loss by 10% or more as compared to Day 0 were given DietGel (registered trademark).
In addition, the presence of toxicity was judged as follows: a dose observed with a weight loss of 20% or more or a mortality rate of 10% or more was judged to have exceeded the MTD (maximum tolerated dose) and thus toxicity was present.

[3] = tested on: Human stomach cancer cell line, NCI-N87; assay: Antitumor evaluation in model with tumor recurrence following administration of trastuzumab emtansine (NCI-N87 subcutaneous xenograft); format: in vivo, nude mice (BALB/cAJcl-nu/nu); details: for TV (mm^3) on Day43 Mean ± SD: Step 2, Day 43, Compound 1 60 mg/kg/day p.o. Days 1-42, trastuzumab emtansine 10 mg/kg/day i.v. Days 1, 22, n=9
Procedure: Human stomach cancer cell line, NCI-N87, was obtained from American Type Culture Collection (ATCC). The cell line was cultured in a RPMI-1640 medium (containing 4.5 g/L glucose, 10 mM HEPES and 1 mM sodium pyruvate) (Wako Pure Chemical Corporation) containing 10% fetal bovine serum (FBS) at 37° C. in a 5% CO2 incubator.
The NCI-N87 cells were resuspended in PBS to a concentration of 10^8 cells/mL. A 1-mL tuberculin syringe with a 25G needle was used to subcutaneously transplant […] cells/0.1 mL each of the cell suspension into the right chests of 6-week-old nude mice (BALB/cAJcl-nu/nu, CLEA Japan, Inc.).
The tumor diameter was measured with a digital caliper by holding the long diameter and the short diameter of the tumor between the measuring surfaces of the digital caliper for each mouse. Measurements took place at a frequency of once in 2-5 days including the day of group sorting and the day of judgement. The tumor volume (TV) was calculated based on these long and short diameters. The relative tumor volume (RTV) and the rate of change in the relative tumor volume (T/C) were calculated from the calculated tumor volume. TV, RTV and T/C were calculated according to the following equations. Tumor volume TV(mm^3)=(Long diameter, mm)×(Short diameter, mm)×(Short diameter, mm)/2 Relative tumor volume RTV=(TV on day of measurement)/(TV on day of dividing into groups) Rate of change in relative tumor volume T/C (%)=(Mean RTV of treated group)/(Mean RTV of control group)×100
The tumor diameters and weights were measured with time to calculate TV and BWC.
Eighteen nude mice confirmed with tumor recurrence in Step 1 were selected, and 9 animals were assigned to each group by equal distribution (MiSTAT (ver.2.0)) as follows such that the mean TV of each group was uniform (Day 1, i.e., Day 85 as counted from Step 1). Compound 1 was prepared to 6 mg/mL with a 0.1N HCl solution, and the resultant was orally administered once a day on Days 1-42 consecutively. […] The tumor diameters and weights were measured with time to calculate TV and BWC.

[4] = tested on: Champions Tumor Graft models CTG-1171; assay: Anti-tumor effect using cancer patient-derived cells (CTG-1171 PDX, Test Example 2); format: in vivo, nude mice (Athymic Nude-Foxn1nu)
Procedure: Champions Tumor Graft models CTG-1171 (Champions Oncology, Inc.) having the profiles shown in Tables 5-8 were transplanted into Stock mice (Athymic Nude-Foxn1^nu, Envigo). Once the tumor volume of the transplanted tumor reached 1,000-1,500 mm^3, the tumor was taken out and a fragment thereof of about 65 mm^3 was subcutaneously transplanted into the left side of 7-week-old nude mice (Athymic Nude-Foxn1^nu, Envigo). Tumor diameters were measured twice a week with a digital caliper. TV was calculated according to the following equation. TV (mm^3)=Width (mm)^2×Length (mm)×0.52
Ten individuals whose tumor volumes reached 150-300 mm^3 were assigned to each group (Day 0).
as §1
The anti-tumor effect of the drug was evaluated according to tumor growth inhibition (TGI), which was calculated by the following equation. TGI=(100%×[1−(TV of treated group on Day 27−TV of treated group on Day 0)/(TV of control group on Day 27−TV of control group on Day 0)])

[5] = tested on: Breast cancer (primary), HER2 +; details: single patient; neighbouring lines without a result appear to be partners of the same regimen; cited from earlier work
[6] = value on first line of a two-line group (apparent combination): Capecitabine 5 with Lapatinib 1 mg/kg/day, once a day for 21 days p.o., Gemcitabine with Nab-paclitaxel, dose not given

**Q.** Which “TGI (%)” value [1, 6] does the source give for CCCCCOC(=O)Nc1nc(=O)n([C@@H]2O[C@H](C)[C@@H](O)[C@H]2O)cc1F [Capecitabine] here?
**A.** 96%

**Q.** With C=CC(=O)N1CCC[C@@H](n2nc(C(=O)Nc3ccc(CC(=O)N(C)C)c(C)c3C)c3c(N)ncnc32)C1 [Compound 1, (R)-1-(1-acryloylpiperidine-3-yl)-4-amino-N-(4-(2-(dimethylamino)-2-oxoethyl)-2,3-dimethylphenyl)-1H-pyrazolo[3,4-d]pyrimidine-3-carboxamide] as the molecule, how does the “decrease of average rate of change in the weight during the administration period” value [2] read?
**A.** < 5%

**Q.** What about the “judgement of the dose (tolerability)” value [2] of the same molecule?
**A.** tolerable

**Q.** And the “BWG(%) on Day27 Mean” value ([2]; Day 27)?
**A.** −0.60%

**Q.** What about the “TV versus trastuzumab emtansine-administered group on day of judgement (Day 43)” value ([3]; Aspin-Welch's t-test, Compound 1 60 mg/kg/day p.o.) of the same molecule?
**A.** significantly lower

**Q.** What about the “T/C (%)” value ([3]; Day 43, mean TV of Compound 1 group / mean TV of trastuzumab emtansine group × 100, 60 mg/kg/day p.o. Days 1-42) of the same molecule?
**A.** 25.4%

**Q.** And the “TV (mm^3) on Day43 Mean ± SD” value [3]?
**A.** 107.29 ± 37.76 mm^3

**Q.** What about the “TV versus control-administered group on Day 27” value ([4]; 60 mg/kg/day p.o. Days 0-27) of the same molecule?
**A.** significantly lower

**Q.** And the “TV (mm^3) on Day0 Mean ± SD” value ([4]; Day 0 (group assignment, baseline), n=10)?
**A.** 196 ± 22 mm^3

**Q.** What about the “TV (mm^3) on Day27 Mean ± SD” value ([4]; Day 27, 60 mg/kg/day p.o. Days 0-27, n=10) of the same molecule?
**A.** 162 ± 27 mm^3

**Q.** And the “TGI (%)” value ([4]; Day 27 versus Day 0, versus control, 60 mg/kg/day p.o. Days 0-27)?
**A.** 112%

**Q.** With CC(=O)O[C@@]12CO[C@@H]1C[C@H](O)[C@@]1(C)C(=O)[C@H](O)C3=C(C)[C@@H](OC(=O)[C@H](O)[C@@H](NC(=O)OC(C)(C)C)c4ccccc4)C[C@@](O)([C@@H](OC(=O)c4ccccc4)[C@H]21)C3(C)C [Docetaxel] as the molecule, how does the “Result (treatment history before acquiring tumor tissue)” value [5] read?
**A.** Responded

**Q.** Which “Result (treatment history after acquiring tumor tissue)” value [5] does the source give for C=C1C[C@@H]2CC[C@@]34C[C@H]5O[C@H]6[C@@H](O3)[C@H]3O[C@H](CC[C@@H]3O[C@H]6[C@H]5O4)CC(=O)C[C@@H]3[C@@H](OC)[C@@H](C[C@H](O)CN)O[C@H]3C[C@H]3O[C@@H](CC[C@@H]1O2)C[C@@H](C)C3=C [Eribulin] here?
**A.** No response

**Q.** With Nc1ccn([C@@H]2O[C@H](CO)[C@@H](O)C2(F)F)c(=O)n1 [Gemcitabine] as the molecule, how does the “TGI (%)” value [1, 6] read?
**A.** 28%

**Q.** For CS(=O)(=O)CCNCc1ccc(-c2ccc3ncnc(Nc4ccc(OCc5cccc(F)c5)c(Cl)c4)c3c2)o1 [Lapatinib], which “Result (treatment history after acquiring tumor tissue)” value [5] is on record?
**A.** No response

**Q.** Which “TGI (%)” value ([1]; single agents, Nab-paclitaxel 0.5 mg/kg/day once a week for 3 weeks i.v., Temsirolimus 0.5 once a week for 5 weeks i.p., Trastuzumab 15 once a week for 8 weeks i.v., Afatinib dose not given) does the source give for CO[C@H]1C[C@@H]2CC[C@@H](C)[C@@](O)(O2)C(=O)C(=O)N2CCCC[C@H]2C(=O)O[C@H]([C@H](C)C[C@@H]2CC[C@@H](OC(=O)C(C)(CO)CO)[C@H](OC)C2)CC(=O)[C@H](C)/C=C(\C)[C@@H](O)[C@@H](OC)C(=O)[C@H](C)C[C@H](C)/C=C/C=C/C=C/1C [Temsirolimus] here?
**A.** 59%

**Q.** With Bevacizumab as the molecule, how does the “Result (treatment history before acquiring tumor tissue)” value [5] read?
**A.** No response

**Q.** Which results are given for Trastuzumab emtansine?
**A.** tumor course after administration of trastuzumab emtansine (FIG. 1) ([3]; Step 1, 10 mg/kg/day i.v. on Days 1, 22, 43, 64, n=36): tumor shrinkage was confirmed for once by administration of trastuzumab emtansine but tumor recurrence was confirmed on Day 85; TV (mm^3) on Day43 Mean ± SD [3]: 421.92 ± 143.78 mm^3; Result (treatment history after acquiring tumor tissue) [5]: No response; Result (treatment history before acquiring tumor tissue) [5]: No response
